Tests used:
galactosaemic rats = assay: dulcitol accumulation in lenses and sciatic nerves of galactosaemic rats; type: in vivo, rat; conditions: for Dulcitol Accumulation Sicatic Nerves Percent Decrease / Dulcitol Accumulation Lenses Percent Decrease / Dulcitol Accumulation Sicatic Nerves / Dulcitol Accumulation Lenses: four days
Source text: The aldose reductase inhibiting property of sulindac and its utilization in diminishing and alleviating diabetic complications also are demonstrable in experiments using galactosaemic rats, see D. Dvornik et al., Science, 182, 1146 (1973). Such experiments are exemplified hereinbelow after the listing of the following general comments pertaining to these experiments:
(a) Four or more groups of six male rats, 50-70 g, Sprague-Dawley strain, were used. The first group, the control group, was fed a mixture of laboratory chow (rodent laboratory chow, Purina) and glucose at 20% (w/w %) concentration. The untreated galactosaemic group was fed a similar diet in which galactose is substituted for glucose. The other groups were fed diets containing various amounts of sulindac in the galactose containing diet. The concentration of galactose in the diet of the treated groups was the same as that for the untreated galactosaemic group.
(b) After four days, the animals were killed by decapitation. The eyeballs were removed and punctured with a razor blade; the freed lenses were rolled gently on filter paper and weighed. The sciatic nerves were dissected as completely as possible and weighed. Both tissues were frozen and kept up to two weeks before being analyzed for dulcitol.
(c) The tissues were homoginized in 5% (w/v) trichloroacetic acid and the polyol determination on the extracts was performed by a modification of the procedure of M. Kraml and L. Cosyns, Clin. Biochem., 2, 373 (1969). Only two minor reagent changes were made: (a) The rinsing mixture was an aqueous 5% (w/v) trichloroacetic acid solution and (b) the stock solution was prepared by dissolving 25 mg of dulcitol in 100 ml of an aqueous trichloroacetic acid solution. [N.B.: For each experiment the average value found in the tissue from rats fed the glucose diet was substracted from the individual values found in the corresponding rat tissue to obtain the amount of polyol accumulated].

lens aldose reductase = target: T1, lens aldose reductase (Bos taurus, UniProt P16116); assay: in vitro aldose reductase inhibition test (modified Hayman and Kinoshita procedure, enzyme from bovine lens); type: biochemical
T1 construct: preparation of the enzyme from bovine lens; from tissue; host or cells: bovine lens
Method: In the present case the procedure of Hayman and Kinoshita is modified in that the final chromatography step is omitted in the preparation of the enzyme from bovine lens.
The following results were obtained when sulindac was evaluated in the above in vitro test: […]

[1] = Experiment 2, 62 mg/kg/day in diet, p < 0.01

Percent Inhibition (lens aldose reductase; concentration 10^-5 Mole/l): 88%
Percent Inhibition (lens aldose reductase; concentration 10^-6 Mole/l): 60%
Percent Inhibition (lens aldose reductase; concentration 10^-7 Mole/l): 18%
Structure (SMILES): CC1=C(CC(=O)O)c2cc(F)ccc2/C1=C\c1ccc([S+](C)[O-])cc1 (stereo not drawn) [Sulindac, (Z)-5-Fluoro-2-methyl-1-[[4-(methylsulfinyl)phenyl]methylene]-1H-indene-3-acetic acid]
Dulcitol Accumulation Sicatic Nerves Percent Decrease (galactosaemic rats; Experiment 1, 31 mg/kg/day in diet, p < 0.001): 39%
Dulcitol Accumulation Lenses Percent Decrease (galactosaemic rats; Experiment 1, 31 mg/kg/day in diet, t test N.S.): 8%
Dulcitol Accumulation Sicatic Nerves (galactosaemic rats; Experiment 1, 31 mg/kg/day in galactose diet, untreated 1.67 ± 0.08): 1.02 ± 0.09 µg/mg
Dulcitol Accumulation Lenses (galactosaemic rats; Experiment 1, 31 mg/kg/day in galactose diet, untreated 12.01 ± 0.38): 11.10 ± 0.28 µg/mg
Dulcitol Accumulation Lenses Percent Decrease (galactosaemic rats; Experiment 2, 25 mg/kg/day in diet, p < 0.01): 14%
Dulcitol Accumulation Sicatic Nerves Percent Decrease (galactosaemic rats; Experiment 2, 25 mg/kg/day in diet, t test N.S.): 36%
Dulcitol Accumulation Sicatic Nerves (galactosaemic rats; Experiment 2, 25 mg/kg/day in galactose diet, untreated 1.30 ± 0.14): 0.83 ± 0.19 µg/mg
Dulcitol Accumulation Lenses (galactosaemic rats; Experiment 2, 25 mg/kg/day in galactose diet, untreated 12.10 ± 0.30): 10.46 ± 0.32 µg/mg
Dulcitol Accumulation Lenses Percent Decrease (galactosaemic rats; Experiment 2, 47 mg/kg/day in diet, p < 0.01): 12%
Dulcitol Accumulation Sicatic Nerves Percent Decrease (galactosaemic rats; Experiment 2, 47 mg/kg/day in diet, p < 0.05): 34%
Dulcitol Accumulation Sicatic Nerves (galactosaemic rats; Experiment 2, 47 mg/kg/day in galactose diet, untreated 1.30 ± 0.14): 0.85 ± 0.10 µg/mg
Dulcitol Accumulation Lenses (galactosaemic rats; Experiment 2, 47 mg/kg/day in galactose diet, untreated 12.10 ± 0.30): 10.71 ± 0.22 µg/mg
Dulcitol Accumulation Lenses Percent Decrease (galactosaemic rats; [1]): 17%
Dulcitol Accumulation Sicatic Nerves Percent Decrease (galactosaemic rats; [1]): 49%
Dulcitol Accumulation Sicatic Nerves (galactosaemic rats; Experiment 2, 62 mg/kg/day in galactose diet, untreated 1.30 ± 0.14): 0.67 ± 0.04 µg/mg
Dulcitol Accumulation Lenses (galactosaemic rats; Experiment 2, 62 mg/kg/day in galactose diet, untreated 12.10 ± 0.30): 10.06 ± 0.43 µg/mg
accumulation of dulcitol in the lenses and sciatic nerves of rats fed galactose (in words) (galactosaemic rats; as compared to an untreated animal): diminishes and alleviates the accumulation of dulcitol
inhibition of lens aldose reductase (in words) (lens aldose reductase): potent inhibitor of lens aldose reductase

Source: patent US4307114A, “Aldose reductase inhibition by (Z)-5-fluoro-2-methyl-1-[[4-(methylsulfinyl)phenyl]methylene]-1H-indene- 3-acetic acid” (Ayerst, McKenna & Harrison, Inc., priority 1980, dated 1981)
